In the experiment the target is T1, SMARCA2 (Homo sapiens, UniProt P51531).
T1 construct: endogenous in cells
The experiment can be described thus: SMARCA2 HiBiT degradation assay (cellular). Type of experiment: cell-based. Conditions: for Emax: A549, Emax = amount of residual protein remaining in the cell following compound treatment; for DC50: SMARCA2 HiBiT cells, luminescence readout, 11-point titration from 10 μM, 6 hours or 16 hours, read-out: HiBit A549 SMARCA2 IP. (With HiBiT, luminescence reflects the tagged protein that the partner subunit can reach.)

Structures are written as SMILES.

T1 sequence (P51531 whole entry): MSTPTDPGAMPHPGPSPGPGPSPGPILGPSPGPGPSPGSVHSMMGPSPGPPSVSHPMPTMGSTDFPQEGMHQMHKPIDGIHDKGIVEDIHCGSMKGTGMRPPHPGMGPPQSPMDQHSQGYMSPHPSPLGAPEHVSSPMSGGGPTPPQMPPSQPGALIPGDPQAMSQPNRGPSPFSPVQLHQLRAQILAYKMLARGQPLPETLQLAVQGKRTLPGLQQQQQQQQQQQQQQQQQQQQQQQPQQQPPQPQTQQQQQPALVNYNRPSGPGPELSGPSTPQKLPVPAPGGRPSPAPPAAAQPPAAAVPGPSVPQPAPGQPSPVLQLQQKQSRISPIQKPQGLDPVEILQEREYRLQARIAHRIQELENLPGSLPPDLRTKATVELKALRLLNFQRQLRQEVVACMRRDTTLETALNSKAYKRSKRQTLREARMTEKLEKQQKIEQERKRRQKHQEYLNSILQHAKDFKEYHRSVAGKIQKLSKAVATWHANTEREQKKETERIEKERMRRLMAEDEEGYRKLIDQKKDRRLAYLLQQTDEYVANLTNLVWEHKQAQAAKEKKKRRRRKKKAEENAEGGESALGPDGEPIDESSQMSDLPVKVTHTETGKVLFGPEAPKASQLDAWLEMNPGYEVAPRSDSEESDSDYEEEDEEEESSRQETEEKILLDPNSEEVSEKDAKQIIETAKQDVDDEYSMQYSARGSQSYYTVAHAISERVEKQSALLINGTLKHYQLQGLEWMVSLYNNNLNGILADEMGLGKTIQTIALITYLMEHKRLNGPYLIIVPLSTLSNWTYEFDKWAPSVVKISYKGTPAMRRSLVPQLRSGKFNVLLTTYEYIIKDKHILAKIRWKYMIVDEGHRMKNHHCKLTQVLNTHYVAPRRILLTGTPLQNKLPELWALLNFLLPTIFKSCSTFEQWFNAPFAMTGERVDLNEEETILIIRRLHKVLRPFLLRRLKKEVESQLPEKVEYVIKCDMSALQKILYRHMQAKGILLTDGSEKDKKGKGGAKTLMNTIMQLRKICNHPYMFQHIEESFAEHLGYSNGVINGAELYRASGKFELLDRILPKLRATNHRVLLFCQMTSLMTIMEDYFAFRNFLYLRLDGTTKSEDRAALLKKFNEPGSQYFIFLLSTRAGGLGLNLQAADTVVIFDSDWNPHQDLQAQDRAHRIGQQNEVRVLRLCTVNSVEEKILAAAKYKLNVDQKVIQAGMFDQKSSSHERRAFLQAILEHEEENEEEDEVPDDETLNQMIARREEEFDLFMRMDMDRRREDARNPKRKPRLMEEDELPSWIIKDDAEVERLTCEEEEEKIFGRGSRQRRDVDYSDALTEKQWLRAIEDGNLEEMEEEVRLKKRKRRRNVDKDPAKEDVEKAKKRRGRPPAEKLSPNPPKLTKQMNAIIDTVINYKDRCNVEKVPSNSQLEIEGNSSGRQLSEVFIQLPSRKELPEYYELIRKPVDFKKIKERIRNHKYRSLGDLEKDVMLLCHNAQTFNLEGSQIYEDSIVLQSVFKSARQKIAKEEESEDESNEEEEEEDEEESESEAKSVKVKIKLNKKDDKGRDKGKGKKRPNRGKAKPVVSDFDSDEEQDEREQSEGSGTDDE

For the compound `Cc1ncsc1-c1ccc([C@H](C)NC(=O)[C@@H]2C[C@@H](O)CN2C(=O)[C@@H](NC(=O)CCOCCOCCC(=O)N2CCN(c3ccc(N4CCCC(Oc5cc(-c6ccccc6O)nnc5N)C4)cc3)CC2)C(C)(C)C)cc1` (mixture of isomers) [Example 34, rac-(2S,4R)-4-hydroxy-1-[rac-(2S)-2-[3-[2-[3-[4-[4-[3-[3-amino-6-(2-hydroxyphenyl)pyridazin-4-yl]oxy-1-piperidyl]phenyl]piperazin-1-yl]-3-oxo-propoxy]ethoxy]propanoylamino]-3,3-dimethyl-butanoyl]-N-[rac-(1S)-1-[4-(4-methylthiazol-5-yl)phenyl]ethyl]pyrrolidine-2-carboxamide], the Emax (usually the size of the effect at its maximum, as opposed to the concentration needed) amounted to 47% and the DC50 was 1100 nM.

Take `Cc1ncsc1-c1ccc(CNC(=O)[C@@H]2C[C@@H](O)CN2C(=O)[C@@H](NC(=O)CCCCCCCCC(=O)N2CCC(CNC(=O)C3(c4ccccc4)CCN(c4cc(-c5ccccc5O)nnc4N)CC3)CC2)C(C)(C)C)cc1` [Example 99, 1-[3-amino-6-(2-hydroxyphenyl)pyridazin-4-yl]-N-[[1-[10-[[(1S)-1-[(2S,4R)-4-hydroxy-2-[[4-(4-methylthiazol-5-yl)phenyl]methylcarbamoyl]pyrrolidine-1-carbonyl]-2,2-dimethyl-propyl]amino]-10-oxo-decanoyl]-4-piperidyl]methyl]-4-phenyl-piperidine-4-carboxamide]: the Emax came to 59% and the DC50 is 827 nM.

With `Cc1ncsc1-c1ccc([C@H](C)NC(=O)[C@@H]2C[C@@H](O)CN2C(=O)[C@@H](NC(=O)CCCCCCNC(=O)C(c2ccccc2)n2cc(-c3cc(-c4ccccc4O)nnc3N)cn2)C(C)(C)C)cc1` (mixture of isomers) [Example 75, rac-(2S,4R)-4-hydroxy-1-[rac-(2S)-2-[7-[[2-[4-[3-amino-6-(2-hydroxyphenyl)pyridazin-4-yl]pyrazol-1-yl]-2-phenyl-acetyl]amino]heptanoylamino]-3,3-dimethyl-butanoyl]-N-[rac-(1S)-1-[4-(4-methylthiazol-5-yl)phenyl]ethyl]pyrrolidine-2-carboxamide], the Emax turned out to be 26% and the DC50 was determined as 777 nM.

With `Cc1ncsc1-c1ccc([C@H](C)NC(=O)[C@@H]2C[C@@H](O)CN2C(=O)[C@@H](NC(=O)CCCCCCCCCNC(=O)C(c2ccccc2)n2cc(-c3cc(-c4ccccc4O)nnc3N)cn2)C(C)(C)C)cc1` (mixture of isomers) [Example 88, rac-(2S,4R)-4-hydroxy-1-[rac-(2S)-2-[10-[[2-[4-[3-amino-6-(2-hydroxyphenyl)pyridazin-4-yl]pyrazol-1-yl]-2-phenyl-acetyl]amino]decanoylamino]-3,3-dimethyl-butanoyl]-N-[rac-(1S)-1-[4-(4-methylthiazol-5-yl)phenyl]ethyl]pyrrolidine-2-carboxamide], the Emax came to 29% and the DC50 turned out to be 423 nM.

In the case of `Cc1ncsc1-c1ccc(CNC(=O)[C@@H]2C[C@@H](O)CN2C(=O)[C@H](NC(=O)CCCCCCCCCOc2cccc(N3C4CCC3CN(c3cc(-c5ccccc5O)nnc3N)C4)c2)C(C)(C)C)cc1` [Example 20, (2S,4R)-1-[(2R)-2-[10-[3-[3-[3-amino-6-(2-hydroxyphenyl)pyridazin-4-yl]-3,8-diazabicyclo[3.2.1]octan-8-yl]phenoxy]decanoylamino]-3,3-dimethyl-butanoyl]-4-hydroxy-N-[[4-(4-methylthiazol-5-yl)phenyl]methyl]pyrrolidine-2-carboxamide], the Emax worked out at 33% and the DC50 is 313 nM.

As for `Cc1ncsc1-c1ccc([C@H](C)NC(=O)[C@@H]2C[C@@H](O)CN2C(=O)[C@@H](NC(=O)CCCCCCCCC(=O)N2CCN(Cc3cccc(C(C)Oc4cc(-c5ccccc5O)nnc4N)c3)CC2)C(C)(C)C)cc1` (mixture of isomers) [Example 82, rac-(2S,4R)-4-hydroxy-1-[rac-(2S)-2-[[10-[4-[[3-[l-[3-amino-6-(2-hydroxyphenyl)pyridazin-4-yl]oxyethyl]phenyl]methyl]piperazin-1-yl]-10-oxo-decanoyl]amino]-3,3-dimethyl-butanoyl]-N-[rac-(1S)-1-[4-(4-methylthiazol-5-yl)phenyl]ethyl]pyrrolidine-2-carboxamide], the Emax came out at 62% and the DC50 was 586 nM.

In the case of `Cc1ncsc1-c1ccc([C@H](C)NC(=O)[C@@H]2C[C@@H](O)CN2C(=O)[C@@H](NC(=O)CCCCCC(=O)N2CCN(c3ccc(N4CCCC(Oc5cc(-c6ccccc6O)nnc5N)C4)cc3)CC2)C(C)(C)C)cc1` (mixture of isomers) [Example 32, rac-(2S,4R)-4-hydroxy-1-[rac-(2S)-2-[[7-[4-[4-[3-[3-amino-6-(2-hydroxyphenyl)pyridazin-4-yl]oxy-1-piperidyl]phenyl]piperazin-1-yl]-7-oxo-heptanoyl]amino]-3,3-dimethyl-butanoyl]-N-[rac-(1S)-1-[4-(4-methylthiazol-5-yl)phenyl]ethyl]pyrrolidine-2-carboxamide], the Emax stood at 20% and the DC50 was 119 nM.

For the compound `Cc1ncsc1-c1ccc([C@H](C)NC(=O)[C@@H]2C[C@@H](O)CN2C(=O)[C@@H](NC(=O)CCCCCCCCC(=O)N2CCN(CCOc3cccc(N4CCCC(Oc5cc(-c6ccccc6O)nnc5N)C4)c3)CC2)C(C)(C)C)cc1` (mixture of isomers) [Example 71, rac-(2S,4R)-4-hydroxy-1-[rac-(2S)-2-[[10-[4-[2-[3-[3-[3-amino-6-(2-hydroxyphenyl)pyridazin-4-yl]oxy-1-piperidyl]phenoxy]ethyl]piperazin-1-yl]-10-oxo-decanoyl]amino]-3,3-dimethyl-butanoyl]-N-[rac-(1S)-1-[4-(4-methylthiazol-5-yl)phenyl]ethyl]pyrrolidine-2-carboxamide], the Emax came out at 38% and the DC50 was 522 nM.

For the compound `Cc1ncsc1-c1ccc(CNC(=O)[C@@H]2C[C@@H](O)CN2C(=O)[C@@H](NC(=O)CCCCCCCCC(=O)N2CCN(CCOc3ccc(N4C5CCC4CN(c4cc(-c6ccccc6O)nnc4N)C5)cc3)CC2)C(C)(C)C)cc1` [Example 68, (2S,4R)-1-[(2S)-2-[[10-[4-[2-[4-[3-[3-amino-6-(2-hydroxyphenyl)pyridazin-4-yl]-3,8-diazabicyclo[3.2.1]octan-8-yl]phenoxy]ethyl]piperazin-1-yl]-10-oxo-decanoyl]amino]-3,3-dimethyl-butanoyl]-4-hydroxy-N-[[4-(4-methylthiazol-5-yl)phenyl]methyl]pyrrolidine-2-carboxamide], the Emax was 50% and the DC50 came to 2320 nM.

For the compound `Cc1ncsc1-c1ccc(CNC(=O)[C@@H]2C[C@@H](O)CN2C(=O)[C@@H](NC(=O)CCCCCCCCC(=O)N2CCN(c3cc(-c4ccccc4O)nnc3N)CC23CC3)C(C)(C)C)cc1` [Example 16, (2S,4R)-1-[(2S)-2-[[10-[7-[3-amino-6-(2-hydroxyphenyl)pyridazin-4-yl]-4,7-diazaspiro[2.5]octan-4-yl]-10-oxo-decanoyl]amino]-3,3-dimethyl-butanoyl]-4-hydroxy-N-[[4-(4-methylthiazol-5-yl)phenyl]methyl]pyrrolidine-2-carboxamide], the Emax turned out to be 33% and the DC50 was found to be 872 nM.

The values are drawn from US20230002367A1, “BIFUNCTIONAL COMPOUNDS” (Hoffmann-La Roche Inc., priority 2019, published 2023).
